6 molecules from patent US11241455B2, “Methods of treating disease by metabolic control of T-cell differentiation” (The J. David Gladstone Institutes, a testamentary trust …, priority 2016, dated 2022) can be followed below.

The subject of one series is IDH1 and IDH2. As to the kind of experiment: Retroviral shRNA knockdown of IDH1 and/or IDH2 in T cells under TH17 condition, intracellular staining of IL-17 and FOXP3. It is filed as cell-based, mouse. The following applies: sorted GFP+ cells cultured under TH17 condition. Here is the method: (§1) Short hairpin RNAs (ShRNAs) (synthesized DNA oligos), after annealing, were cloned into PMKO.1-GFP retrovirus vector. The plasmids and pCL-ECO (1:1) were transfected into 293T cells with Fugene® HD4 (Promega). The medium was changed 6 hours after transfection, and the cells were further cultured for 48-72 hours. The supernatant was then collected and filtered using […]. The supernatant containing the viruses was added into pre-activated CD4+ T cells (20 hours after initial plating). The cells were spin-infected at 1000 g for 2 hours and cultured in incubator for another 2 hours. The cells were washed and cultured under TH17 conditions for an additional 4 days. New medium was added if necessary. At day 5, the cells were collected for sorting GFP+ cells and GFP− cells. Sorted cells were further cultured until day 6, and re-stimulated for intracellular staining or mRNA analysis, as described above.
2-HG, which was originally identified in cancer cells harboring isocitrate dehydrogenase (IDH) 1/2 mutation, is also known to be produced via wild-type IDH1 and IDH2 reactions as well. Among all the dehydrogenases examined in this study, only IDH1 and 2 are highly expressed in differentiating TH17 cells (FIGS. 10a, 10d). […] GFP+ cells and GFP− cells were sorted and analyzed by intracellular staining of IL-17 and FOXP3.

The next series concerns IDH1 and/or IDH2 mRNA. As to the kind of experiment: mRNA expression of IDH1 and IDH2 in shRNA-infected GFP+ cells. It is filed as cell-based, mouse. Conditions: GFP+ cells re-stimulated with anti-CD3 and anti-CD28; normalized to β-actin. As for the experimental part: (§2) At the end of differentiation (day 6), T cells were re-stimulated with plate-coated anti-CD3 and anti-CD28 for 5 hours in the absence of any small-molecule compounds or metabolites. Quantitative reverse transcriptase polymerase chain reaction (qRT-PCR) was performed to evaluate mRNA expression of FOXP3, Il17, Il17f, and Rorc. For differentiating TH17 or iTreg cells, cells were collected on day 2.5 or at the indicated time for mRNA expression analysis. The expression was normalized to β-actin.
as §1, with “Sorted cells were further cultured until day 6, and re-stimulated for intracellular staining or mRNA analysis, as described above.” left out

The subject of series [1] is differentiating TH17 cells. As to the kind of experiment: TH17 differentiation of CD4 naïve T cells (IL17F-RFP/FOXP3-GFP reporter or intracellular staining of IL-17 and FOXP3). It is filed as cell-based, mouse. The following applies: for rescue of the inhibitory effect of AOA on TH17 cell differentiation: in the presence of AOA, day 6, 0.75 mM α-KG, 0.5 mM 2-HG, 0.5 mM succinate, 50 μM fumarate, 0.5 mM malate, 0.5 mM citrate, 1 mM NAC, 1 mM GSH. Here is the method: (§3) CD4 naïve T cells (CD4+CD25-CD62^highCD44^low) were obtained from interleukin (IL)-17F-red fluorescent protein (RFP)/FOXP3-green fluorescent protein (GFP) mice, which were characterized previously, or wild-type C57/BL6 mice, by cell sorting. 0.4 million cells were plated into 48 wells coated with anti-mouse CD3 (clone 145-2C11, eBioscience) […] and anti-mouse CD28 (clone 37.51, eBioscience) (1 μg/ml). The differentiation media for these naïve T cells was as follows: 0.5 ng/ml (or indicated) transforming growth factor (TGF) β, 200 U/ml mouse IL-2, 2 μg/ml anti-interferon (IFN) γ and 2 μg/ml anti-mouse IL4 for differentiation into iTreg cells; and 2.5 ng/ml TGFβ, 10 ng/ml mouse IL-1β, 10 ng/ml mouse IL-6, 10 ng/ml mouse IL-23, 2 μg/ml anti-mouse IFNγ, and anti-mouse IL-4 for differentiating into TH17 cells. The cells were supplemented with new medium at day 4. In cases in which small-molecule compounds were present, the fresh medium containing the same concentration of compounds was used. When necessary, the individual metabolite was added into the T-cell culture 6 hours later after initial cell plating. On day 6, the cells were analyzed for IL17F-RFP and FOXP3-GFP or the cells were collected and restimulated for 4-6 hours with PMA, inomycin, and Golgi-stop for intracellular staining in absence of indicated compounds.
To identify small molecules that regulate cell-fate switching of TH17/iTreg cells and to further understand the regulation of the TH17/iTreg balance, 10,000 individual small molecules were phenotypically screened using CD4 naïve T cells from IL-17F-RFP/FOXP3-GFP mice. The naïve T cells were cultured under optimal TH17 differentiation conditions and compounds that could reprogram TH17 differentiation toward iTreg cell fate were identified using the reporter readout. Briefly, after TH17 differentiation for 24 hours, compounds were added to TH17 culture, and the treatment was continued for an additional 5 days before the cells were analyzed for IL17F-RFP and FOXP3-GFP expression by high-throughput fluorescence-activated cell sorting (FACS) (FIG. 5a). […] This effect of reprogrammed differentiation was further confirmed by intracellular immunostaining of IL-17 and FOXP3 (FIG. 1a).

The test system of series [2] is FOXP3 promoter and its intronic CpG island. As to the kind of experiment: Methylation analysis by bisulfite sequencing, T cells under TH17 condition. The series is classed as cell-based, mouse. The following applies: 0.5 mM dimethyl R-2-HG (day 4) or AOA (day 6), male mice. Here is the method:
(§4) The method is essentially the same as described previously (Kim, et al. J Exp Med 204 (7), 1543-1551 (2007)). Briefly, genomic DNA was purified with Blood & Cell Culture DNA Midi Kit (Qiagen). Bisufite conversion of genomic DNA was performed using Epitect® bisulfite kit (Qiagen), according to the manufacture's instruction. The PCR product was run on 2% agarose, purified and cloned using TOPO® TA Cloning® Kit with PCR®4. Clones are picked for Sanger sequencing.

Series [3] has as its system differentiating iTreg cells. As to the kind of experiment: iTreg differentiation of CD4 naïve T cells (FOXP3-GFP reporter or intracellular staining of FOXP3). Conditions: for reversal of the enhancing effect of AOA on iTreg cell differentiation: in the presence of AOA, day 5, 0.5 mM α-KG, 0.125 mM 2-HG (0.25 mM in FIG. 2g), 0.5 mM succinate, 50 μM fumarate, 0.5 mM malate, 0.5 mM citrate. The series is classed as cell-based, mouse. Here is the method:
as §3, with “On day 6, the cells were analyzed for IL17F-RFP and FOXP3-GFP or the cells were collected and restimulated for 4-6 hours with PMA, inomycin, and Golgi-stop for intracellular staining in absence of indicated compounds.” left out

For series [4], the system named is FOXP3, Il17, Il17f, and Rorc mRNA in TH17 cells. As to the kind of experiment: mRNA expression analysis by qRT-PCR in TH17 cells. The following applies: normalized to β-actin. The series is classed as cell-based, mouse. Here is the method:
as §2
Background: Quantitative PCR measures a nucleic acid by following its amplification.

Series [5] deals with FOXP3 mRNA in iTreg cells. As to the kind of experiment: mRNA expression analysis by qRT-PCR in iTreg cells. It is filed as cell-based, mouse. The following applies: normalized to β-actin. Here is the method:
as §2

Series [6] deals with FOXP3 promoter and its intronic CpG island. As to the kind of experiment: Methylation analysis by bisulfite sequencing, T cells under iTreg condition. It is filed as cell-based, mouse. Conditions: iTreg condition (day 5); 0.5 mM dimethyl R-2-HG or AOA; male mice. Here is the method:
as §4

A further series concerns the target T1, Got1 (Mus musculus, UniProt P05201).
T1 construct: Got1 was knocked down in differentiating TH17 cells with retrovirus containing GFP and shRNA against Got1; endogenous in cells; host or cells: primary mouse CD4 naive T cells differentiated under TH17 conditions
As to the kind of experiment: Retroviral shRNA knockdown of Got1 in differentiating TH17 cells, intracellular staining of FOXP3 and IL-17. It is filed as cell-based. Conditions: sorted GFP+ cells, TH17 condition, day 6; versus empty vector or GFP− cells. Here is the method:
as §1

The mark [7] stands for this setting: re-stimulated with anti-CD3 and anti-CD28 for 5 hours.

T1 sequence (P05201 whole entry): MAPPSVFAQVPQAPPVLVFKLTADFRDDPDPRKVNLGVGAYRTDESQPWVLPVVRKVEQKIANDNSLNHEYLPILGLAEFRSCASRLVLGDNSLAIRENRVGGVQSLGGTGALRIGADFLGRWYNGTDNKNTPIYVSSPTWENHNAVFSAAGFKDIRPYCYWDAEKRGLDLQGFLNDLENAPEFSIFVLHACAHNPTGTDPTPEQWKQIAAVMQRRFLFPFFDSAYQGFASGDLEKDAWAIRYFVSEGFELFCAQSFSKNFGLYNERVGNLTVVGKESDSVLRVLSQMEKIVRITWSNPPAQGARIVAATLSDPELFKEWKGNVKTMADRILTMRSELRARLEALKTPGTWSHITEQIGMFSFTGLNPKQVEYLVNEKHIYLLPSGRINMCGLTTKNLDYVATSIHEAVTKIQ

As to “shRNA against IDH1: shRNA targeting IDH1 (SEQ ID NO: 49) in PMKO.1-GFP retrovirus vector (CCGGCCTGGGCTTAGAATGAGTCTTCTCGAGAAGACTCATTCTAAGCCCAGGTTTTTG)”, the “reduction of the percentage of IL-17 producing cells” value in the series on IDH1 and IDH2 is “approximately 30%”. Also, the “mRNA expression of IDH1 and/or IDH2” value in the series with IDH1 and/or IDH2 mRNA is recorded as “efficiently suppressed the mRNA expression”.

On to `COC(=O)CC[C@@H](O)C(=O)OC` [Dimethyl R-2-HG, (R)-dimethyl 2-hydroxyglutarate], for which the “direct effect on TH17 cell differentiation (IL-17/IL-17F and FOXP3 expression)” value in series [1] (in the absence of AOA, exogenously added dimethyl metabolite) is “directly promoted TH17 cell differentiation by up-regulating IL-17/IL-17F expression and down-regulating FOXP3 expression in a dose-dependent manner”. In addition, the “rescue of the inhibitory effect of AOA on TH17 cell differentiation” value in series [1] is listed as “rescued the inhibitory effect of AOA on TH17 differentiation”. For the same molecule, the “methylation level of FOXP3 promoter and its intronic CpG island” value in series [2] and in [6] was “dramatically increase methylation level” in each case. Besides, the “FOXP3 expression under iTreg condition” value in [3] (in the absence of AOA, analyzed on day 5) is “inhibited FOXP3 expression”. Moreover, the “reversal of the enhancing effect of AOA on iTreg cell differentiation” value in [3] is “reversed its enhancing effect on iTreg differentiation”. The “FOXP3 mRNA expression” value in series [4] and in series [5] was “suppressed FOXP3 mRNA expression” throughout. Moreover, the “Il17/Il17f mRNA level” value in series [4] (setting [7]) is recorded as “increased Il17/Il17f mRNA”. The “Rorc mRNA level” value in series [4] (setting [7]) was “did not affect Rorc mRNA”.

On to “GOT1-1: shRNA targeting GOT1 (SEQ ID NO: 47) in PMKO.1-GFP retrovirus vector (CCGGCCACATGAGAAGACGTTTCTTCTCGAGAAGAAACGTCTTCTCATGTGGTTTTTG)”, for which, in the series with Got1, the “percentage of IL17+ cells” value was “reduced” and the “proportion of FOXP3+ cells” value is “reciprocally increased”.

As for “shRNA against IDH2: shRNA targeting IDH2 (SEQ ID NO: 50) in PMKO.1-GFP retrovirus vector (CCGGGAAGAGTTCAAGCTGAAGAAACTCGAGTTTCTTCAGCTTGAACTCTTCTTTTTG)”, in the series with IDH1 and IDH2, the “reduction of the percentage of IL-17 producing cells” value is on record as “approximately 30%”. In addition, the “mRNA expression of IDH1 and/or IDH2” value in the series with IDH1 and/or IDH2 mRNA is on record as “efficiently suppressed the mRNA expression”.

On to `COC(=O)CCC(=O)C(=O)OC` [dimethyl-α-KG], for which the “rescue of the inhibitory effect of AOA on TH17 cell differentiation” value in series [1] is recorded as “rescued the inhibitory effect of AOA on TH17 differentiation”. Also, the “reversal of the enhancing effect of AOA on iTreg cell differentiation” value in series [3] is “reversed its enhancing effect on iTreg differentiation”.

On to “GOT1-2: shRNA targeting GOT1 (SEQ ID NO: 48) in PMKO.1-GFP retrovirus vector (CCGGGTCGAACAGAAGATTGCTAATCTCGAGATTAGCAATCTTCTGTTCGACTTTTTG)”, for which, in the series with Got1, the “percentage of IL17+ cells” value is listed as “reduced” and the “proportion of FOXP3+ cells” value is given as “reciprocally increased”.
